This passage reports Ka, binding and binding constant results from publication PMC3090394 (2011).

Assay [1] has as its system oligo I, d-(GGGATATATCCC)2, AT-rich oligonucleotide (DNA, duplex) GGGATATATCCC
As to the kind of experiment: ITC. As to conditions: Na+ 100 mM (NaCl), 10 mM HEPES, pH 7.0, 25°C; for Ka: apparent, (K1K2)^1/2 of two binding events; for binding: 1000 µM ligand titrated into 10 µM DNA, nd.

Assay [2] relates to oligo II, d-(GGGCGGCCGCCC)2, GC-rich oligonucleotide (DNA, duplex) GGGCGGCCGCCC
As to the kind of experiment: ITC. Conditions: Na+ 100 mM (NaCl), 10 mM HEPES, pH 7.0, 25°C; for binding: 1000 µM ligand titrated into 10 µM DNA, nd.

For `Cn1cc(NC(=O)c2cc(NC(=O)c3cccn3C)cn2C)cc1C(=O)NCCCn1cc(CN2CCCNCCNCCCNCC2)nn1.[Zn+2]`, the Ka in assay [1] was 1.5±0.3 ×10^5 M^−1. Moreover, in assay [2], the binding entry is on record as “no”.

Consider `Cn1cc(NC(=O)c2cc(NC(=O)c3cccn3C)cn2C)cc1C(=O)NCCCn1cc(CN2CCCNCCNCCCNCC2)nn1`, for which, in assay [1], the Ka is 2.7±0.3 ×10^5 M^−1. Besides, the binding result in assay [2] is “no”.

Take `Cn1cc(NC(=O)c2cccn2C)cc1C(=O)NCCCn1cc(CN2CCCNCCNCCCNCC2)nn1`: the binding entry in assay [1] and in assay [2] was “no” in each case.

In the case of `CC[n+]1c(-c2ccccc2)c2cc(N)ccc2c2ccc(N)cc21`, the binding constant in assay [1] (control titration) and in assay [2] (control titration) was ~ 0.7×10^5 M^−1 each time.

Regarding `Cn1cccc1C(=O)NCCCn1cc(CN2CCCNCCNCCCNCC2)nn1`, the binding entry in assay [1] and in assay [2] was “no” throughout.

As to `Cn1cc(NC(=O)c2cc(NC(=O)c3cccn3C)cn2C)cc1C(=O)NCCCn1cc(CN2CCCNCCNCCCNCC2)nn1.[Cu+2]`, the Ka in assay [1] is given as 1.2±0.2 ×10^5 M^−1. Besides, in assay [2], the binding result is “no”.
